In ChEMBL document CHEMBL1145562, “Substituted dipiperidine alcohols as potent CCR2 antagonists” (Bioorg Med Chem Lett, 2008):

These compounds were tested against T1, C-C chemokine receptor type 2 (Homo sapiens, UniProt P41597) (assay: Binding affinity at human CCR2 receptor).
T1 sequence (P41597 whole entry): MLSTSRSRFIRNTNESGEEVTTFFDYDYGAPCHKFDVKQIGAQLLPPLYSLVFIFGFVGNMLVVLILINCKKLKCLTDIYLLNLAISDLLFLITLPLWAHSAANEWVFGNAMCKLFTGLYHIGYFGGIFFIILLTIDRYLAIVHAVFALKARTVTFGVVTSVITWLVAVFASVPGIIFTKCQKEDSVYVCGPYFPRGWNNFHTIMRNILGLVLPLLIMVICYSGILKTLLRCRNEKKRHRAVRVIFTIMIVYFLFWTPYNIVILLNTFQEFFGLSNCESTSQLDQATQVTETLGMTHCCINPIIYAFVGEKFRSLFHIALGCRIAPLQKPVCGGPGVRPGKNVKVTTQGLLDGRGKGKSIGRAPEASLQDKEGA

Row | SMILES | IC50 [nM]
1 | O=C(/C=C/c1cc(F)c(F)c(F)c1)N1CCC([C@@H](CO)N2CCC(c3c[nH]c4ccccc34)CC2)CC1 | 2.4
2 | CN(C)CC(C1CCN(C(=O)/C=C/c2cc(F)c(F)c(F)c2)CC1)N1CCC(c2c[nH]c3ccccc23)CC1 (configuration not stated) | 4800
3 | O=C(/C=C/c1cccc(Br)c1)N1CCC(C(CO)N2CCC(c3c[nH]c4ccccc34)CC2)CC1 (configuration not stated) | 9
4 | O=C(/C=C/c1cc(F)c(F)c(F)c1)N1CCC([C@H](CO)N2CCC(c3c[nH]c4ccccc34)CC2)CC1 | 10
5 | O=C(/C=C/c1ccc(F)c(Br)c1)N1CCC(C(CO)N2CCC(c3c[nH]c4ccccc34)CC2)CC1 (configuration not stated) | 2
6 | Nc1ccc2[nH]cc(C3CCN(C(CO)C4CCN(C(=O)/C=C/c5cc(F)c(F)c(F)c5)CC4)CC3)c2c1 (configuration not stated) | 1

Next, values leading:

Row | IC50 [nM] | SMILES
7 | 2 | CC(=O)Nc1ccc2[nH]cc(C3CCN(C(CO)C4CCN(C(=O)/C=C/c5cc(F)c(F)c(F)c5)CC4)CC3)c2c1 (configuration not stated)
8 | 20 | COC(=O)c1ccc2[nH]cc(C3CCN(C(CO)C4CCN(C(=O)/C=C/c5cc(F)c(F)c(F)c5)CC4)CC3)c2c1 (configuration not stated)
9 | 50 | COC(=O)c1ccc2[nH]cc(C3CCN(C(CO)C4CCN(C(=O)Nc5ccc(Cl)c(Cl)c5)CC4)CC3)c2c1 (configuration not stated)
10 | 10 | O=C(O)c1ccc2[nH]cc(C3CCN(C(CO)C4CCN(C(=O)Nc5ccc(Cl)c(Cl)c5)CC4)CC3)c2c1 (configuration not stated)
11 | 1 | O=C(/C=C/c1cc(F)c(F)c(F)c1)N1CCC(C(CO)N2CCC(c3c[nH]c4ccc(O)cc34)CC2)CC1 (configuration not stated)

What follows are compounds tested against T1, C-C chemokine receptor type 2 (assay: Antagonist activity at CCR2 receptor expressed in THP1 cells assessed as inhibition of MCP-1-induced chemotaxis).

Row | IC50 [nM] | SMILES
12 | 3.5 | O=C(/C=C/c1cc(F)c(F)c(F)c1)N1CCC([C@@H](CO)N2CCC(c3c[nH]c4ccccc34)CC2)CC1
